The results in this text go back to ChEMBL document CHEMBL1129773, “Novel 1,2-diarylcyclobutenes: Selective and orally active cox-2 inhibitors” (Bioorg Med Chem Lett, 1996).

pIC50: −log10 of the molar value.

Data set [1] has as its target T1, Prostaglandin G/H synthase 2 (Homo sapiens, UniProt P35354).
T1 sequence (P35354 whole entry): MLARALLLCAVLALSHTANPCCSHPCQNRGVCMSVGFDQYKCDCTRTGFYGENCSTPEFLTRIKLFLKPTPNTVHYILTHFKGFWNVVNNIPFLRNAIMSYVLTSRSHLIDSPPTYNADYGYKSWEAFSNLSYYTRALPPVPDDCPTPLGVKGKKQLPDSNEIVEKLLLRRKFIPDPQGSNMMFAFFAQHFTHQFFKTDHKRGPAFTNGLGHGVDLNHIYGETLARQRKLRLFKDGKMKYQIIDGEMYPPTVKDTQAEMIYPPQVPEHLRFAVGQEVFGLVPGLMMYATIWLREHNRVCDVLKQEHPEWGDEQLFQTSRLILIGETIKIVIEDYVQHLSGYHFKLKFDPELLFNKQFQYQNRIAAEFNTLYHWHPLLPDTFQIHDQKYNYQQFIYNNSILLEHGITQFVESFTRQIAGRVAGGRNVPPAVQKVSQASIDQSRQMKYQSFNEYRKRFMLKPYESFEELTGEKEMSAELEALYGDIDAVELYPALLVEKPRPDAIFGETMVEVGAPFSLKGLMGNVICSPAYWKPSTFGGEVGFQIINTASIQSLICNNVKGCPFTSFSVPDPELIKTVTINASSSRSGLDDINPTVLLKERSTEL
The data set is classed as cell-based, CHO.

In data set [2] the target is Prostaglandin G/H synthase 1 (Homo sapiens, UniProt P23219).
A short description of data set [3]: Compound was tested for plasma concentration in rats when administered at 20 mg/kg in 1% methocel at 1 hr. The conditions noted are these: rat, read-out: Cmax. The data set is classed as ADME, organism-based. Set-up: dose 20 mg/kg.
Data set [4] has as its system Rattus norvegicus. Description: Compound was tested in vivo for efficacy in the rat paw edema assay upon oral administration. The data set is classed as functional.
A short description of a further data set: in vivo. The conditions noted are these: rat, plasma, 20 mg/kg.
Data set [5] is filed under the species Rattus norvegicus. The data set can be described thus: animal or person. Particulars: po, read-out: Inhibition.

Chain of Prostaglandin G/H synthase 1 (P23219 whole entry): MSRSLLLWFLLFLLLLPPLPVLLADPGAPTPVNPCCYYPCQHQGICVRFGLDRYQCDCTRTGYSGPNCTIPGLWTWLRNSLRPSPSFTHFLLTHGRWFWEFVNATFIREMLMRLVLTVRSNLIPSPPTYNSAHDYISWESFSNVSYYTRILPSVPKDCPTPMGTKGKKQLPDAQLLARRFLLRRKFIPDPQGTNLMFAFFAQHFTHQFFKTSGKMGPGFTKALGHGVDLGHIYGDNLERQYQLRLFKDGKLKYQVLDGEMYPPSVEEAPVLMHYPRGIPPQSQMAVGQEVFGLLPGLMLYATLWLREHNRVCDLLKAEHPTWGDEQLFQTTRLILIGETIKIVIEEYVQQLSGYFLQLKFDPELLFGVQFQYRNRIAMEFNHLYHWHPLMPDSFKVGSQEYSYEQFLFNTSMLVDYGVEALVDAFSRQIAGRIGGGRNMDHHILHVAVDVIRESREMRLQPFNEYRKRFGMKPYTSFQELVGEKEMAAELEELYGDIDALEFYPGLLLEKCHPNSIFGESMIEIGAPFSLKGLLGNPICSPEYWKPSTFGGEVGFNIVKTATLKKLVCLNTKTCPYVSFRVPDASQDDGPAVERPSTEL
Description for in vivo: Compound was tested for plasma concentration in rats when administered at 20 mg/kg in 1% methocel at 2 hr

On to `CC1(C)C(=O)C(c2ccc(F)cc2)=C1c1ccc(S(C)(=O)=O)cc1`, for which the results for the pIC50 in data set [1] and in data set [2] were 8.30 and 6.43, respectively.

On to `CC1(C)C(=O)C(c2ccccc2)=C1c1ccc(S(C)(=O)=O)cc1`, for which the concentration at 1 h in data set [3] was 7500 nM. The 50% effect level with Rattus norvegicus [4] (ED50) was put at a dose of 2.4 mg/kg.

In the case of `CS(=O)(=O)c1ccc(C2=C(c3ccccc3)C(=O)C2)cc1`, the values for the pIC50 in data set [1] and in data set [2] were 6.96 and 5.36, respectively.

Take `C=C1C(c2ccccc2)=C(c2ccc(S(C)(=O)=O)cc2)C1(C)C`: the pIC50 (usually the IC50 on a negative log10 scale, so that one unit is a factor of ten) in data set [1] is 8.66; in data set [2] it was 6.92.

Turning to `C=C1CC(c2ccc(S(C)(=O)=O)cc2)=C1c1ccccc1`, the concentration at 1 h in data set [3] came to 1000 nM. The 50% effect level in the data set on Rattus norvegicus [4] (ED50) was put at a dose of 5.5 mg/kg. Besides, in data set [2], the pIC50 is 6.27.

For the compound `CC1(C)C(=O)C(c2ccc(S(C)(=O)=O)cc2)=C1c1ccccc1`, the concentration at 1 h in data set [3] was 8500 nM. Also, the 50% effect level with Rattus norvegicus [4] (ED50) was put at a dose of 2.7 mg/kg. Besides, the pIC50 in data set [2] was 5.70.

With `CC1(C)C(c2ccc(S(C)(=O)=O)cc2)=C(c2ccccc2)/C1=N/O`, the negative-log IC50 (pIC50) in data set [1] was 7.21; in data set [2], 4.47. Besides, in data set [3], the concentration at 1 h is 1800 nM. Moreover, the 50% effect level in the data set with Rattus norvegicus [4] (ED50) was put at a dose of 4.2 mg/kg.

Consider `CS(=O)(=O)c1ccc(-c2cc(Br)sc2-c2ccc(F)cc2)cc1` [DUP-697], for which the concentration at 2 h in the data set “in vivo” was 700 nM. The ED50 (usually the midpoint of the dose-response relation) in the data set on Rattus norvegicus [4] is 1.3 mg/kg.

As for `CS(=O)(=O)c1ccc(C2=C(c3ccccc3)CC2)cc1`, the pIC50 in data set [1] was below 5.30.

In the case of `CS(=O)(=O)c1ccc(C2=C(c3ccc(F)cc3)CC3(CC3)C2)cc1`, the inhibition in vivo at 30 mg/kg in the data set filed under Rattus norvegicus [5] came to 38%. Further, the pIC50 in data set [2] is 6.85.

As to `CC1(C)C(c2ccc(S(C)(=O)=O)cc2)=C(c2ccccc2)C1O` (configuration not stated), the results for the negative logarithm of the IC50 (pIC50) in data set [1] and in data set [2] were 6.28 and 4.35, respectively.

Consider `CS(=O)(=O)c1ccc(C2=C(c3ccccc3)C(=O)C23CCCC3)cc1`, for which the pIC50 was 7.92 in data set [1] and 6.30 in data set [2].
